The results in this text go back to patent publication US20260356830A1, “COMPOUNDS FOR MODULATING RET PROTEIN” (Bristol-Myers Squibb Company, priority 2022, published 2026).

Structures are written as SMILES.

The test concerns the target T1, CCDC6-RET (Homo sapiens, UniProt P07949+Q16204+Q96SW2).
T1 construct: CCDC6 (natural N-terminal fusion partner, UniProt Q16204); endogenous in cells; host or cells: TPC-1 (parental, papillary thyroid carcinoma)
Nature of the test: Cellular RET degradation, AlphaLISA, TPC-1 cell line. It counts as cell-based. The following applies: for Dmax: TPC1, human, 24 h, read-out: Cell Density TPC-1/CCDC6-RET Ymax %; for DC50: read-out: Cell Density TPC-1/CCDC6-RET DC50, half-maximal degradation concentration, TPC-1 (CCDC6-RET), 24 hrs. The gist of the method: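 TPC-1 papillary thyroid carcinoma cells (endogenous CCDC6-RET) in DMEM with 2% FBS, compound-treated 24 h at 37 °C. RET in lysates quantified by AlphaLISA luminescence, normalized to media-only and DMSO wells; DC50 and maximal degradation from 4-parameter logistic fit.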

T1 sequence (Q16204+P07949 fused): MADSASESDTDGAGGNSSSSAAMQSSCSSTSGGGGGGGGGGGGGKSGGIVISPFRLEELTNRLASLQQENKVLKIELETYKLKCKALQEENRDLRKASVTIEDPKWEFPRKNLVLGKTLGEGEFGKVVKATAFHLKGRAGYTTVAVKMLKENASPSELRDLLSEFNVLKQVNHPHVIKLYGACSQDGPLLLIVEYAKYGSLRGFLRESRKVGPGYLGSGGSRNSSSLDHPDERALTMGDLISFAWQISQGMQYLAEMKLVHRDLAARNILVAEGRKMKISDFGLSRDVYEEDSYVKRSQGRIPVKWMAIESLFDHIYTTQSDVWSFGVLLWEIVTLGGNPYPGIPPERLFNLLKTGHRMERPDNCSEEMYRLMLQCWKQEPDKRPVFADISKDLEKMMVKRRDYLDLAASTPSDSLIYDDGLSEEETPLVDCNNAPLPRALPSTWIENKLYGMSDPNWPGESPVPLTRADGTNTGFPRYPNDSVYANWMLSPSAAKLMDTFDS
T1 sequence (Q96SW2 whole entry, the tested form may be a part): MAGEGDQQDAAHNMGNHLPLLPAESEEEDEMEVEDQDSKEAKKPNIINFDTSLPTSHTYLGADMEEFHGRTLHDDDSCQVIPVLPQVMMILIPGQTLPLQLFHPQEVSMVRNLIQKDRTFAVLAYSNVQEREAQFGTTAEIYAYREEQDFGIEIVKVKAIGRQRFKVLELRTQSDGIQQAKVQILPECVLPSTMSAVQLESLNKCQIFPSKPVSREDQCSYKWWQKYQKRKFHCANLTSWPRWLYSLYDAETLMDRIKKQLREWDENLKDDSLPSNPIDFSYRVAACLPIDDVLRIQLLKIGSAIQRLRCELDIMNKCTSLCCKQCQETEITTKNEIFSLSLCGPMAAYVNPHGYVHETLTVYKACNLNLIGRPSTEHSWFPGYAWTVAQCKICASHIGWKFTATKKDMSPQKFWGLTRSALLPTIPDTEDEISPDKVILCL
T1 sequence (Q16531 whole entry partner, the tested form may be a part): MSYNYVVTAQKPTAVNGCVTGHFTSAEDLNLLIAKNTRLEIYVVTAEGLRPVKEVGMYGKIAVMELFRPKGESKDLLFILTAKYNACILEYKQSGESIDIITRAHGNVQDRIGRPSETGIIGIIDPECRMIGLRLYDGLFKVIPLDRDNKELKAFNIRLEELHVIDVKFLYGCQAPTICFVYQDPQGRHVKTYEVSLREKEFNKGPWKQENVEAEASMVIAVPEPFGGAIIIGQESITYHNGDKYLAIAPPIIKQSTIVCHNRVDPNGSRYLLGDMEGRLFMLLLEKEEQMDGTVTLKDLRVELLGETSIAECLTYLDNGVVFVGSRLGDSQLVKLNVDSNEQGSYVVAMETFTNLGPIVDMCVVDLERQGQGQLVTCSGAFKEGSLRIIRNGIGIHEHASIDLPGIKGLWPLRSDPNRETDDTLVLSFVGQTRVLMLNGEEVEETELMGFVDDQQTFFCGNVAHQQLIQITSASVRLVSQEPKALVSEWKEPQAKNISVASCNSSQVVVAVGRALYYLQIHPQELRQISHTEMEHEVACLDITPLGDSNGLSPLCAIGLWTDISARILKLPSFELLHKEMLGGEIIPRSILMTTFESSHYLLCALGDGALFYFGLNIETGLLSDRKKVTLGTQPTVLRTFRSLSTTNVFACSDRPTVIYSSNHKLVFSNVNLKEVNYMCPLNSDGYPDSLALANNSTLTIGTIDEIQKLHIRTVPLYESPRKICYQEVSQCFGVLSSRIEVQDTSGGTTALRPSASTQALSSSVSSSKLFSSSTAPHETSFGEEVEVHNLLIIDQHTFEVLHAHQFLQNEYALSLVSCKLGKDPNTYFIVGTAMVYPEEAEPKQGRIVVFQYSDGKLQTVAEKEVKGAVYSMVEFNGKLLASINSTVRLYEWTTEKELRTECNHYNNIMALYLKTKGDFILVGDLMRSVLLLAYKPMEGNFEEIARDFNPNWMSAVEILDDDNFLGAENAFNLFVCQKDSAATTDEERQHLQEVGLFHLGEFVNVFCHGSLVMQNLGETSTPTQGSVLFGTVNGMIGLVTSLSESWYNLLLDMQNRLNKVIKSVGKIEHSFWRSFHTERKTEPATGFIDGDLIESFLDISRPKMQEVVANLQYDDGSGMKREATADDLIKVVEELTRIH

For the compound `CCOc1cc(-c2ccc(N3CCC(NC(=O)c4cc(F)ccc4F)(C(=O)NCCCCCCNc4cccc5c(N6CCC(=O)NC6=O)nn(C)c45)CC3)nc2)c2c(C#N)cnn2c1` [Example 149, 1-(5-{3-cyano-6-ethoxypyrazolo[1,5-a]pyridin-4-yl}pyridin-2-yl)-4-(2,5-difluorobenzamido)-N-(6-{[3-(2,4-dioxo-1,3-diazinan-1-yl)-1-methyl-1H-indazol-7-yl]amino}hexyl)piperidine-4-carboxamide], the Dmax was over 90% and the DC50 is under 2 nM.

Consider `CCOc1cc(-c2ccc(N3CCC(NC(=O)c4cc(F)ccc4F)(C(=O)NCCCCN4CCC(c5ccc6c(c5)C(=O)N(C5CCC(=O)NC5=O)C6)CC4)CC3)nc2)c2c(C#N)cnn2c1` (stereo not drawn) [Example 162, 1-(5-{3-cyano-6-ethoxypyrazolo[1,5-a]pyridin-4-yl}pyridin-2-yl)-4-(2,5-difluorobenzamido)-N-(4-{4-[2-(2,6-dioxopiperidin-3-yl)-3-oxo-2,3-dihydro-1H-isoindol-5-yl]piperidin-1-yl}butyl)piperidine-4-carboxamide], for which the Dmax was in the range of 60 to 90% and the DC50 was 10 to 100 nM.

Regarding `CCOc1cc(-c2ccc(N3CCC(NC(=O)c4cc(F)ccc4F)(C(=O)NCCCCCCCCCCNc4cccc5c(N6CCC(=O)NC6=O)nn(C)c45)CC3)nc2)c2c(C#N)cnn2c1` [Example 150, 1-(5-{3-cyano-6-ethoxypyrazolo[1,5-a]pyridin-4-yl}pyridin-2-yl)-4-(2,5-difluorobenzamido)-N-(10-{[3-(2,4-dioxo-1,3-diazinan-1-yl)-1-methyl-1H-indazol-7-yl]amino}decyl)piperidine-4-carboxamide], the Dmax is over 90% and the DC50 was 10 to 100 nM.

For the compound `CCOc1cc(-c2ccc(N3CCC(CN4CCN(CCC(=O)N5CCC(c6ccc7c(c6)C(=O)N(C6CCC(=O)NC6=O)C7)CC5)CC4)(NC(=O)c4cc(F)ccc4F)CC3)nc2)c2c(C#N)cnn2c1` (stereo not drawn) [Example 116, N-[1-(5-{3-cyano-6-ethoxypyrazolo[1,5-a]pyridin-4-yl}pyridin-2-yl)-4-{[4-(3-{4-[2-(2,6-dioxopiperidin-3-yl)-3-oxo-2,3-dihydro-1H-isoindol-5-yl]piperidin-1-yl}-3-oxopropyl)piperazin-1-yl]methyl}piperidin-4-yl]-2,5-difluorobenzamide], the Dmax was over 90% and the DC50 lay within 2 to 10 nM.

For `CCOc1cc(-c2ccc(N3CCC(CN4CCN(C(=O)CCCCCCCCCCCCNC(=O)COc5cccc6c5CN(C5CCC(=O)NC5=O)C6=O)CC4)(NC(=O)c4cc(F)ccc4F)CC3)nc2)c2c(C#N)cnn2c1` (stereo not drawn) [Example 29, N-[1-(5-{3-cyano-6-ethoxypyrazolo[1,5-a]pyridin-4-yl}pyridin-2-yl)-4-({4-[13-(2-{[2-(2,6-dioxopiperidin-3-yl)-1-oxo-2,3-dihydro-1H-isoindol-4-yl]oxy}acetamido)tridecanoyl]piperazin-1-yl}methyl)piperidin-4-yl]-2,5-difluorobenzamide], the Dmax is over 90% and the DC50 fell in the range of 10 to 100 nM.

With `CCOc1cc(-c2ccc(N3CCC(Cc4ccccc4)(NC(=O)C4CCN(C(=O)CCN5CCC(c6ccc7c(c6)CN(C6CCC(=O)NC6=O)C7=O)CC5)CC4)CC3)nc2)c2c(C#N)cnn2c1` (stereo not drawn) [Example 66, N-[4-benzyl-1-(5-{3-cyano-6-ethoxypyrazolo[1,5-a]pyridin-4-yl}pyridin-2-yl)piperidin-4-yl]-1-(3-{4-[2-(2,6-dioxopiperidin-3-yl)-1-oxo-2,3-dihydro-1H-isoindol-5-yl]piperidin-1-yl}propanoyl)piperidine-4-carboxamide], the Dmax fell in the range of 60 to 90% and the DC50 is under 2 nM.
